Data published in US9060997B2, “Antifolate compounds for the treatment of melanoma” (UNIVERSIDAD DE MURCIA, priority 2007, dated 2015).

Tests used:
B16 melanoma = experiment: Mouse tumor model, B16 melanoma, topical TMECG cream; assay type: in vivo
Protocol: Female C57/B16 mice 6-8 weeks old were obtained from the Animal Research Service (University of Murcia, Spain) and were housed in our animal facilities. All animal work was performed in accordance with the government guidelines. The B16 melanoma cell line (ATCC) was culture in RPMI 1640 medium under standard tissue culture conditions. Mice were shaved on the back using a long-hair cutter and 7.5×10^5 B16 melanoma cells resuspended in 25 μl sterile PBS were injected intradermally on the back. Animals with tumors more than 8 mm in diameter on day 8 or nonvisible tumor growth by day 12 were excluded. Groups consisting of 20 mice per group were differently treated starting at day 8 after tumor cell injection. For TMECG treatments this compound was uniformly mixed in a cosmetic base cream (Thae, Murcia, Spain). Topical treatment of TMECG was given every day at a dose of ≈1 mg/cm2 skin area. Control mice (non-TMECG treated) were topically treated with the some amount of cream alone. Tumor growth and body weight were monitored every second day. A postmortem with histological examination of the lung, liver and brain was performed in all animals. Tissues were fixed in 10% formaldehyde, dehydrated and embedded in paraffin wax. Sections (4 μm) were stained with eosin and hematoxylin. Analyses of gluconic acid content in lungs were carried out as described elsewhere (Pradeep and Kuttan, 2002).

Caspase-3 mRNA = Caspase-3 mRNA expression (real-time PCR); assay type: cell-based, human; details: SkMel-28, 50 μM, 7 days
Protocol: (§1) Histograms compare the estimated relative levels of the mRNA with respect to that of β-actin. Values represent the number of copies of mRNA per each 1×10^6 copies of β-actin.
(§2) cDNA samples (1 μL) were used for real-time PCR in a total volume of 20 μL using SYBR Green Reagent (Applied Biosystems) and specific primers on a 7500 Real Time PCR System of Applied Biosystems. The PCR amplification cycles included denaturation 95° C., 15 min; to activate HotStar Taq DNA polymerase and to minimize primer-dimer contribution), and amplification [over 40-50 cycles including denaturation (94° C.; 30 s), annealing (55° C.; 30 s), and extension (72° C.; 1 min)]. All PCR reactions were performed in triplicate and from at least two independent experiments. Non-RT control and negative control samples (without template) were processed in the same manner. The specificity of the amplification was verified by melting curve analysis for all samples, and occasionally by agarosa gel electrophoresis. Amplification of target gene sequences were compared against serial dilutions of know quantities of their purified cDNA fragments, and normalized to the abundance of the house-keeping gene β-actin.

human tyrosinase = target: T1, human tyrosinase (Homo sapiens, UniProt P14679); experiment: Tyrosinase-catalyzed oxidation, steady-state kinetics; assay type: biochemical; parameters: Human tyrosinase was purified to homogeneity from SkMel-28 (1×10^8 cells) following the protocol designed by Yurkow and Laskin (1989); endogenous in cells; host or cells: SkMel-28; details: human tyrosinase from SkMel-28, pH 5.5, 25° C.; read-out: Michaelis-Menten constant (Km)
T1 sequence (P14679 19-529): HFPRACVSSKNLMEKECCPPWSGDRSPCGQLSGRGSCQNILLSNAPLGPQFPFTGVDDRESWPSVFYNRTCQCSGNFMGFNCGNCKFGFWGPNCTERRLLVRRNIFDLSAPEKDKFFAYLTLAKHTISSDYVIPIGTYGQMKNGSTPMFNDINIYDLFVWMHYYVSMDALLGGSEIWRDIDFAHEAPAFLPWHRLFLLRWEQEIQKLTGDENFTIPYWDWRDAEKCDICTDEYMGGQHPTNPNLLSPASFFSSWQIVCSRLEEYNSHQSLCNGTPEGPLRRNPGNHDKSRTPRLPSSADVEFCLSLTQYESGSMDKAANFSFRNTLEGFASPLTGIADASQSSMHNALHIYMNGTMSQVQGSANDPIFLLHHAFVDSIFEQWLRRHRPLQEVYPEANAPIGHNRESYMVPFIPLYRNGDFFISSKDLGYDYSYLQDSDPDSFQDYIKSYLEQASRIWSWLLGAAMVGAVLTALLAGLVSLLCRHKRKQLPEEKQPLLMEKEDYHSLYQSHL
Protocol: The arrow represents the absorbance direction and the time between recordings was 1 min. […] Data was fitted to the Michaelis-Menten equation using non-lineal regression analysis.
Human tyrosinase was purified to homogeneity from SkMel-28 (1×10^8 cells) following the protocol designed by Yurkow and Laskin (1989). TMECG oxidation catalyzed by human tyrosinase was followed using a Perkin-Elmer Lambda-35 spectrophotometer. Steady-state kinetic constants were obtained by measuring the initial rates of TMECG oxidation at 412 nm in 30 mM sodium acetate buffer, pH 5.5 and 25° C.

DHFR mRNA and protein = experiment: DHFR mRNA (real-time PCR) and protein in SkMel-28; assay type: cell-based, human; details: SkMel-28, 50 μM
Protocol: Data were obtained by real time PCR and compared with the relative expression of DHFR in HeM cells (zero relative gene expression). Zero time represents the level of DHFR in untreated SkMel-28 cells.
as §2, with “The specificity of the amplification was verified by melting curve analysis for all samples, and occasionally by agarosa gel electrophoresis.” left out
Protein lysates were prepared from specified cells, separated by SDS-polyacrylamide gel electrophoresis (PAGE), transferred to nitrocellulose membranes, and analyzed by immunoblotting. […] Bound antibodies were detected by chemiluminiscence (ECL Plus, GE Healthcare). […]

[1] = test system: γ-glutamylcysteine synthetase (GCS) mRNA; experiment: GCS mRNA determination in SkMel-28; assay type: cell-based, human; details: SkMel-28 treated with TMECG
Protocol: as §1, §2

MCF7 cells = experiment: MTT cell proliferation assay, MCF7; assay type: cell-based; details: Homo sapiens, 144 h; MCF7, 6 days of treatment
Protocol: Four human cancer cells lines (SkMel-28, MCF7, H1264 and Caco-2) were obtained from the American Type Tissue Culture Collection (ATCC) and were maintained in appropriate culture mediums supplemented with 10% fetal calf serum (FCS) and antibiotics, under standard tissue culture conditions (e.g. modified Eagle's medium (MEM) containing 1 mM sodium pyruvate and 10% fetal bovine serum (FES) under 5% CO2/95% air atmosphere.). Cell injury was evaluated by a colorimetric assay for mitochondrial function using the 3-(4,5-dimethylthiazolyl-2)-2,5-diphenyltetrazolium bromide (MTT) cell proliferation assay. For this assay cells were plated in a 96-well plate at a density of 1000 cells/well and grown until they reached 50-60% confluence. Human epidermal melanocytes (HeM) were supplied by Gentaur and were cultured in HAM-F10 medium supplemented with 10% FCS, antibiotics and the human melanocyte growth supplement (Gentaur).

[2] = treated for 21 days, post-mortem

**Q.** Which tumor growth (B16 melanoma; topical, ≈1 mg/cm2 skin area every day) does the source give for `COc1cc(C(=O)O[C@@H]2Cc3c(O)cc(O)cc3O[C@@H]2c2ccc(O)c(O)c2)cc(OC)c1OC` [TMECG, 3-O-(3,4,5-trimethoxybenzoyl)-(−)-epicatechin] here?
**A.** significantly reduced

**Q.** What about the survival time (B16 melanoma; topical, ≈1 mg/cm2 skin area every day, female C57/B16 mice) of the same compound?
**A.** longer survival time

**Q.** And the “liver and brain metastasis” value (B16 melanoma; [2])?
**A.** no metastasis in these organs was detected

**Q.** And the lung metastasis (B16 melanoma; [2])?
**A.** drastically reduced lung metastasis

**Q.** What about the “Caspase-3 mRNA, higher than in HeM or untreated SkMel-28” value (Caspase-3 mRNA) of the same compound?
**A.** around 30 times

**Q.** And the Km (human tyrosinase)?
**A.** 120 ± 20 µM

**Q.** What about the “DHFR mRNA and protein level” value (DHFR mRNA and protein) of the same compound?
**A.** reduced DHFR mRNA and protein to normal levels

**Q.** And the “GCS mRNA, mean value” [1]?
**A.** 26300 copies per million of copies of β-actin mRNA

**Q.** And the IC50 (MCF7 cells)?
**A.** 80 µM
